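GI50: concentration for 50% inhibition of growth. TGI marks complete inhibition of growth.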
How the values were obtained:
Test in all cases: NCI anticancer screen, dose series, 384-well format
SNB-75 CNS = tested on: SNB-75 CNS
HOP-92 NSCLC = tested on: HOP-92 NSCLC
HCT-15 colon = tested on: HCT-15 colon
MDA-MB-231 breast = tested on: MDA-MB-231 breast
HCT-116 colon = tested on: HCT-116 colon
SF-295 CNS = tested on: SF-295 CNS
PC-3 prostate = tested on: PC-3 prostate
HT29 colon = tested on: HT29 colon
SNB-19 CNS = tested on: SNB-19 CNS
MDA-MB-435 melanoma = tested on: MDA-MB-435 melanoma
OVCAR-8 ovarian = tested on: OVCAR-8 ovarian
TK-10 renal = tested on: TK-10 renal
NCI/ADR-RES ovarian = tested on: NCI/ADR-RES ovarian
RPMI-8226 leukemia = tested on: RPMI-8226 leukemia
MOLT-4 leukemia = tested on: MOLT-4 leukemia
SF-268 CNS = tested on: SF-268 CNS
KM12 colon = tested on: KM12 colon
T-47D breast = tested on: T-47D breast
HCC-2998 colon = tested on: HCC-2998 colon
EKVX NSCLC = tested on: EKVX NSCLC
NCI-H460 NSCLC = tested on: NCI-H460 NSCLC
BT-549 breast = tested on: BT-549 breast
NCI-H322M lung = tested on: NCI-H322M lung
ACHN renal = tested on: ACHN renal
IGROV1 ovarian = tested on: IGROV1 ovarian
M14 melanoma = tested on: M14 melanoma
SF-539 CNS = tested on: SF-539 CNS
A498 renal = tested on: A498 renal
CAKI-1 renal = tested on: CAKI-1 renal
SR leukemia = tested on: SR leukemia
LOX IMVI melanoma = tested on: LOX IMVI melanoma
SK-MEL-5 melanoma = tested on: SK-MEL-5 melanoma
HL-60(TB) leukemia = tested on: HL-60(TB) leukemia
NCI-H23 lung = tested on: NCI-H23 lung
DU-145 prostate = tested on: DU-145 prostate
OVCAR-4 ovarian = tested on: OVCAR-4 ovarian
MDA-MB-468 breast = tested on: MDA-MB-468 breast
SN12C renal = tested on: SN12C renal
MCF7 breast = tested on: MCF7 breast
HS 578T breast = tested on: HS 578T breast
SK-OV-3 ovarian = tested on: SK-OV-3 ovarian
OVCAR-3 ovarian = tested on: OVCAR-3 ovarian
UACC-62 melanoma = tested on: UACC-62 melanoma
SK-MEL-28 melanoma = tested on: SK-MEL-28 melanoma
UACC-257 melanoma = tested on: UACC-257 melanoma
MALME-3M melanoma = tested on: MALME-3M melanoma
OVCAR-5 ovarian = tested on: OVCAR-5 ovarian
A549 NSCLC = tested on: A549 NSCLC
RXF 393 renal = tested on: RXF 393 renal
NCI-H226 lung = tested on: NCI-H226 lung
COLO 205 colon = tested on: COLO 205 colon
U251 glioblastoma = tested on: U251 glioblastoma
HOP-62 NSCLC = tested on: HOP-62 NSCLC
NCI-H522 lung = tested on: NCI-H522 lung

Q: For Cc1ccc(F)c(NC(=O)Nc2ccc(-c3cccc4[nH]nc(N)c34)cc2)c1, which GI50 (SNB-75 CNS) is on record?
A: 2.67 µM

Q: What about the TGI (SNB-75 CNS) of the same compound?
A: 9.2 µM

Q: What about the GI50 (HOP-92 NSCLC) of the same compound?
A: 3.96 µM

Q: And the TGI (HOP-92 NSCLC)?
A: 12.6 µM

Q: What about the GI50 (HCT-15 colon) of the same compound?
A: 1.82 µM

Q: And the TGI (HCT-15 colon)?
A: 4.3 µM

Q: And the GI50 (MDA-MB-231 breast)?
A: 3.83 µM

Q: And the TGI (MDA-MB-231 breast)?
A: 15.2 µM

Q: And the GI50 (HCT-116 colon)?
A: 1.99 µM

Q: And the TGI (HCT-116 colon)?
A: 4.6 µM

Q: And the GI50 (SF-295 CNS)?
A: 3.17 µM

Q: What about the TGI (SF-295 CNS) of the same compound?
A: 10.5 µM

Q: What about the GI50 (PC-3 prostate) of the same compound?
A: 2.31 µM

Q: What about the TGI (PC-3 prostate) of the same compound?
A: 4.82 µM

Q: And the GI50 (HT29 colon)?
A: 1.77 µM

Q: What about the TGI (HT29 colon) of the same compound?
A: 4.58 µM

Q: And the GI50 (SNB-19 CNS)?
A: 3.26 µM

Q: And the TGI (SNB-19 CNS)?
A: 8.97 µM

Q: And the GI50 (MDA-MB-435 melanoma)?
A: 2.16 µM

Q: And the TGI (MDA-MB-435 melanoma)?
A: 4.25 µM

Q: And the GI50 (OVCAR-8 ovarian)?
A: 2.01 µM

Q: What about the TGI (OVCAR-8 ovarian) of the same compound?
A: 9.04 µM

Q: What about the GI50 (TK-10 renal) of the same compound?
A: 2.07 µM

Q: What about the TGI (TK-10 renal) of the same compound?
A: 5.48 µM

Q: And the GI50 (NCI/ADR-RES ovarian)?
A: 2.43 µM

Q: What about the TGI (NCI/ADR-RES ovarian) of the same compound?
A: 9.01 µM

Q: What about the GI50 (RPMI-8226 leukemia) of the same compound?
A: 1.76 µM

Q: What about the TGI (RPMI-8226 leukemia) of the same compound?
A: 3.16 µM

Q: And the GI50 (MOLT-4 leukemia)?
A: 1.91 µM

Q: What about the TGI (MOLT-4 leukemia) of the same compound?
A: 3.35 µM

Q: What about the GI50 (SF-268 CNS) of the same compound?
A: 2.3 µM

Q: What about the TGI (SF-268 CNS) of the same compound?
A: 7.63 µM

Q: What about the GI50 (KM12 colon) of the same compound?
A: 0.432 µM

Q: And the TGI (KM12 colon)?
A: 3.87 µM

Q: And the GI50 (T-47D breast)?
A: 2.85 µM

Q: What about the TGI (T-47D breast) of the same compound?
A: 14.2 µM

Q: And the GI50 (HCC-2998 colon)?
A: 1.27 µM

Q: And the TGI (HCC-2998 colon)?
A: 2.65 µM

Q: And the GI50 (EKVX NSCLC)?
A: 2.13 µM

Q: And the TGI (EKVX NSCLC)?
A: 4.53 µM

Q: What about the GI50 (NCI-H460 NSCLC) of the same compound?
A: 1.61 µM

Q: What about the TGI (NCI-H460 NSCLC) of the same compound?
A: 3.02 µM

Q: What about the GI50 (BT-549 breast) of the same compound?
A: 1.99 µM

Q: And the TGI (BT-549 breast)?
A: 3.79 µM

Q: What about the GI50 (NCI-H322M lung) of the same compound?
A: 2.15 µM

Q: And the TGI (NCI-H322M lung)?
A: 5.5 µM

Q: What about the GI50 (ACHN renal) of the same compound?
A: 2.13 µM

Q: And the TGI (ACHN renal)?
A: 5.05 µM

Q: What about the GI50 (IGROV1 ovarian) of the same compound?
A: 1.78 µM

Q: What about the TGI (IGROV1 ovarian) of the same compound?
A: 3.79 µM

Q: What about the GI50 (M14 melanoma) of the same compound?
A: 1.96 µM

Q: And the TGI (M14 melanoma)?
A: 4.86 µM

Q: What about the GI50 (SF-539 CNS) of the same compound?
A: 1.44 µM

Q: What about the TGI (SF-539 CNS) of the same compound?
A: 3.49 µM

Q: And the GI50 (A498 renal)?
A: 2.03 µM

Q: And the TGI (A498 renal)?
A: 4.58 µM

Q: And the GI50 (CAKI-1 renal)?
A: 2.84 µM

Q: What about the TGI (CAKI-1 renal) of the same compound?
A: 7.73 µM

Q: What about the GI50 (SR leukemia) of the same compound?
A: 1.49 µM

Q: What about the TGI (SR leukemia) of the same compound?
A: 2.82 µM

Q: What about the GI50 (LOX IMVI melanoma) of the same compound?
A: 1.85 µM

Q: And the TGI (LOX IMVI melanoma)?
A: 3.32 µM

Q: And the GI50 (SK-MEL-5 melanoma)?
A: 1.34 µM

Q: And the TGI (SK-MEL-5 melanoma)?
A: 2.67 µM

Q: And the GI50 (HL-60(TB) leukemia)?
A: 1.27 µM

Q: What about the TGI (HL-60(TB) leukemia) of the same compound?
A: 2.54 µM

Q: And the GI50 (NCI-H23 lung)?
A: 1.71 µM

Q: And the TGI (NCI-H23 lung)?
A: 3.4 µM

Q: And the GI50 (DU-145 prostate)?
A: 1.73 µM

Q: What about the TGI (DU-145 prostate) of the same compound?
A: 3.55 µM

Q: And the GI50 (OVCAR-4 ovarian)?
A: 1.6 µM

Q: What about the TGI (OVCAR-4 ovarian) of the same compound?
A: 3.98 µM

Q: What about the GI50 (MDA-MB-468 breast) of the same compound?
A: 1.8 µM

Q: And the TGI (MDA-MB-468 breast)?
A: 3.69 µM

Q: And the GI50 (SN12C renal)?
A: 1.26 µM

Q: And the TGI (SN12C renal)?
A: 2.89 µM

Q: What about the GI50 (MCF7 breast) of the same compound?
A: 1.08 µM

Q: What about the TGI (MCF7 breast) of the same compound?
A: 4.28 µM

Q: What about the GI50 (HS 578T breast) of the same compound?
A: 2.19 µM

Q: What about the TGI (HS 578T breast) of the same compound?
A: 5.31 µM

Q: And the GI50 (SK-OV-3 ovarian)?
A: 2.42 µM

Q: What about the TGI (SK-OV-3 ovarian) of the same compound?
A: 11.6 µM

Q: What about the GI50 (OVCAR-3 ovarian) of the same compound?
A: 1.75 µM

Q: And the TGI (OVCAR-3 ovarian)?
A: 3.25 µM

Q: And the GI50 (UACC-62 melanoma)?
A: 2.31 µM

Q: And the TGI (UACC-62 melanoma)?
A: 5.7 µM

Q: What about the GI50 (SK-MEL-28 melanoma) of the same compound?
A: 4.44 µM

Q: What about the TGI (SK-MEL-28 melanoma) of the same compound?
A: 15.6 µM

Q: What about the GI50 (UACC-257 melanoma) of the same compound?
A: 1.83 µM

Q: And the TGI (UACC-257 melanoma)?
A: 3.95 µM

Q: And the GI50 (MALME-3M melanoma)?
A: 1.93 µM

Q: What about the TGI (MALME-3M melanoma) of the same compound?
A: 4.24 µM

Q: And the GI50 (OVCAR-5 ovarian)?
A: 1.82 µM

Q: What about the TGI (OVCAR-5 ovarian) of the same compound?
A: 3.89 µM

Q: And the GI50 (A549 NSCLC)?
A: 3.14 µM

Q: What about the TGI (A549 NSCLC) of the same compound?
A: 9.44 µM

Q: What about the GI50 (RXF 393 renal) of the same compound?
A: 1.56 µM

Q: And the TGI (RXF 393 renal)?
A: 3.59 µM

Q: What about the GI50 (NCI-H226 lung) of the same compound?
A: 2.44 µM

Q: And the TGI (NCI-H226 lung)?
A: 9.13 µM

Q: What about the GI50 (COLO 205 colon) of the same compound?
A: 1.93 µM

Q: What about the TGI (COLO 205 colon) of the same compound?
A: 4.29 µM

Q: What about the GI50 (U251 glioblastoma) of the same compound?
A: 2.27 µM

Q: And the TGI (U251 glioblastoma)?
A: 4.83 µM

Q: What about the GI50 (HOP-62 NSCLC) of the same compound?
A: 1.94 µM

Q: What about the TGI (HOP-62 NSCLC) of the same compound?
A: 5.5 µM

Q: And the GI50 (NCI-H522 lung)?
A: 2.05 µM

Q: What about the TGI (NCI-H522 lung) of the same compound?
A: 3.54 µM

Reference: PubChem BioAssay (NCI)
